{"source": "patent US6989270B1", "about": "“Using polyamide nucleic acid oligomers to engender a biological response” (Mayo Foundation for Medical Education and Research, priority 1997, dated 2006)", "key": {"[1]": {"tested_on": "neurotensin receptor-1 (NTR1)", "assay": "Hot plate test of NT-mediated anti-nociception in PNA-treated rats", "type": "in vivo, rat", "experimental": "Under an Institutional Animal Care and Use Committee approved protocol and under sterile conditions male Sprague-Dawley rats (180-200 g) were stereotaxically implanted with stainless steel guide cannulae (26 gauge) into the PAG under sodium pentobarbital anesthesia (50 mg/kg, i.p.) as described in detail elsewhere (Jensen T. S. and Yaksh T. L., Brain Res. 372:301-312 (1986) and Al-Rodhan N.R.F., Brain Res. 557:227-235 (1991)). The coordinates used for PAG cannulations are -5.6 mm posterior from bregma, 1.0 mm lateral from bregma, and 5.5 mm down from the dura. The guide cannula was pre-measured to be 5.5 mm (Plastics One, Roanoke, Va.) and the internal cannula was ordered to fit below the pedestal with a 2.0 mm projection. The guide cannula was then fixed to the skull using a stainless steel screw (⅛ inch) and cranioplastic cement. A stainless steel stilette was then placed in each guide to keep it patent and free of debris. Immediately after surgery, the animals were allowed to recover before returning them to an individual housing cage. All injections began 5-7 days after surgery.\nNTR1-PNA oligomers were injected, using a Hamilton digital syringe, into the PAG through the internal cannula, which extended 2 mm below the guide tip. The internal cannula was connected with a length of polyethylene tubing (PE-20) filled with saline solution. A small air bubble was introduced into the tubing to separate the saline from a solution containing 1.3 nmol of NTR1-PNA oligomers in artificial cerebral-spinal fluid (ACSF). The volume of the solution containing the NTR1-PNA oligomers was about 1.0 μl. The bubble was used to confirm the movement of this solution through the polyethylene tubing.\nNTR1-PNA oligomers were injected into the PAG of each rat three times, on days -4, -2, and 0. Controls included rats receiving no injections, rats receiving injections of ACSF only, and rats receiving PNA oligomers having sequence specificity for an unrelated polypeptide, the mu-1 morphine receptor (MU1R). The sequence of MU1R-PNA is 5′-[…]-3′ (SEQ ID NO: 2).\nThe injection of NT in the PAG of rats produces a potent anti-nociceptive response as well as hypothermia. These responses are mediated by specific NT receptors and are not inhibited by naloxone. A very sensitive and reliable hot plate test was used to measure the anti-nociceptive effects of NT (Al-Rodhan N.R.F., Brain Res. 557:227-235 (1991)).\nNTR1-PNA, MU1R-PNA, and ACSF treated as well as untreated rats were analyzed using the hot plate test for NT. One day after the last treatment, each rat was analyzed as follows. Fifteen minutes prior to testing, a pre-drug latency measurement was made by placing the rat on a hot plate maintained at a temperature of 52±0.15° C. and recording the time elapsed before the rat licked either of its hindpaws. In addition, the temperature of the rat was taken using a thermister probe inserted 3 cm in the rectum to determine the pre-drug body temperature (BT). After making these measurement, an appropriate dose of NT (18 nmol) at a volume of about 0.5 ul was administered into the PAG as described above. Thirty minutes after administering NT, the rat was again placed on a hot plate maintained at a temperature of 52±0.15° C. and the latency between the time the rat was placed on the surface and the time it licked either of its hindpaws was measured. […] Hot plate tests were scored as the percent of maximum possible effect (% MPE) and calculated using the following equation: % MPE=[(post-drug latency−pre-drug latency)/(cut-off−pre-drug latency)]×100; where the cut-off is 30 seconds. […] This average for untreated control rats was used to set the baseline MPE value to 100. Immediately after the 30 second hot plate test, BT was taken to measure NT-induced hypothermia using a thermister probe inserted 3 cm in the rectum. […] All test situations were compared to these baseline values derived from NT responsive untreated controls. […]"}, "NTR1 binding sites": {"tested_on": "NTR1 binding sites", "assay": "[125I]NT binding in PAG, rest of brain and small intestine after i.p. AS-NTR1-PNA (Example 8)", "type": "in vivo, rat", "settings": "for Binding (% change vs control) NT: 24 hours after i.p. injection"}}}
{"substance": "NTR1-PNA: 12-mer antisense PNA oligomer to rat NTR1 coding region, 5′-CATTGCTCAAAC-3′ (SEQ ID NO: 1) (all peptide nucleic acid (PNA))", "values": [{"measurement": "anti-nociception score (hot plate) after NT", "setting": "[1]; 10 mg/kg intraperitoneally, NT 18 nmol into PAG 24 hours later", "value": 25, "unit": "% MPE"}, {"measurement": "time until which NT-mediated anti-nociception remained significantly reduced", "setting": "[1]; PNA injected into PAG on days -4, -2, 0", "value": "day five"}, {"measurement": "Responsiveness: NT (anti-nociception and hypothermia)", "setting": "[1]; intraperitoneal administration, Table VI", "value": "lost"}, {"measurement": "time for responses to NT to return to baseline levels after PNA injection", "setting": "[1]; single injection 10 mg/kg, tested every 24 hours with NT", "value": "≤ 48", "unit": "h"}, {"measurement": "reduction in the number of NTR1 binding sites vs untreated animals", "setting": "NTR1 binding sites; PAG", "value": 35, "unit": "%"}, {"measurement": "Binding (% change vs control) NT", "setting": "NTR1 binding sites; PAG", "value": "−35 ± 9", "unit": "% change vs control"}, {"measurement": "Binding (% change vs control) NT", "setting": "NTR1 binding sites; Rest of Brain", "value": "−40 ± 1", "unit": "% change vs control"}, {"measurement": "Binding (% change vs control) NT", "setting": "NTR1 binding sites; Small Intestine", "value": "−65 ± 5", "unit": "% change vs control"}, {"measurement": "reduction in the number of NTR1 binding sites vs untreated animals", "setting": "NTR1 binding sites; rest of brain", "value": 40, "unit": "%"}, {"measurement": "reduction in the number of NTR1 binding sites vs untreated animals", "setting": "NTR1 binding sites; small intestine", "value": 65, "unit": "%"}]}
